# From patent publication US20010055627A1, “Compositions And Methods For Regulating Lipoproteins And Hypercholesterolemia With Limonoids, Flavonoids And Tocotrienols” (priority 1997, published 2001)
# Like-named read-outs stand apart in the source and are kept apart here.
# How the values were obtained:
# [1] = test system: casein-induced hypercholesterolemia; assay: Serum lipoprotein cholesterol in rabbits fed cholesterol-free casein diet with citrus juice; format: in vivo; conditions: rabbits on casein diet, 3 weeks; hesperitin given as orange juice, naringenin as grapefruit juice (two times regular strength)
# Text: The effect of naringenin and hesperetin on casein-induced hypercholesterolemia was studied in rabbits. In each of the two experiments, rabbits were assigned to thee experimental groups. Each group was given semipurified, cholesterol-free casein diet and either water, orange juice or grapefruit juice to drink. The control group received water to drink and the experimental groups were given either orange juice or grapefruit juice (reconstituted concentrates made up to two times the regular strength). […] FIG. 1 depicts the design of the experiment.
# Dextrose in the diets of the hesperitin (orange juice) and naringenin (grapefruit juice) groups was reduced to account for the sugar consumed via citrus juices. All other dietary components were left unchanged. (Table 1).
# Serum Analysis: At the end of the study, VLDL, LDL and HDL fractions were separated by discontinuous density gradient ultracentrifugation. Total cholesterol in serum and in each lipoprotein fraction were measured using the Boehinger Manheim CHOL kit (Manheim, Germany).
# [2] = test system: apo-B production in HepG2 cells; assay: Apo-B content of medium of HepG2 cells by ELISA; format: cell-based, human; conditions: for effect on apo-B levels/content / reduction of medium apo-B levels: HepG2, 24 h; for reduction of medium apo-B levels: 50 μg/mL, per mg cell protein, versus control
# Method: Cell Culture: Confluent HepG2 cells were preincubated in minimum essential medium (MEM) containing 1.0% bovine serum albumin (BSA) for 24 hours. This was followed by a second 24 hour incubation with or without various non-toxic concentrations of naringenin or hesperitin (7.5-60 ug/ml). At the end of the second 24 hour incubation, the apo-B content of the media was determined by enzyme-lined immunosorbent assay (ELISA) (Young et al., 1986, Clin. Chem. 32:1484-1490).
# Protein Determination: The soluble cellular protein was extracted and measured using Pierce Coomassie Plus Protein Assay.
# (§1) The limonoids, limonin and nomilin were examined for the cholesterol-lowering potential in HepG2 cells. Confluent HepG2 cells were preincubated for 24 h in a lipoprotein-free medium in which the fetal bovine serum was replaced by albumin to inhibit cell proliferation and to stimulate synthesis of cholesterol-containing lipoproteins. Cells were subsequently incubated for another 24 h in the same medium in the presence or absence of limonoids at the highest concentrations sustaining 100% cell viability, as determined by 3-(4,5-dimethylthiazol-2-yl)-2,5-diphenyltetrazolium bromide (MTT) viability assay. The limonoids were added to the cell culture medium after solubilization in dimethyl sulfoxide (DMSO). At the end of the incubation, culture media were collected and the concentration of the LDL structural protein, apo-B, was measured by Elisa by procedures already described in Section 6.0. Amount of lipoprotein-associated apo-B in the media (net apo-B secretion) was determined as described previously, calculated per mg cell protein and expressed as percent of control.
# Apo-B productioon (the structural protein of LDL) was studied in HepG2 cells, using a 24. The effect of flavonoids on apo-B production after 24 h incubation of cells and measuring apo-B by Elisa as described above. All flavonoids, reduced the apo-B levels dose dependently.
# [3] = test system: hamster model of experimental hypercholesterolemia; assay: Serum lipids in hamster model of experimental hypercholesterolemia (casein, cholesterol-enriched diet); format: in vivo, Golden Syrian hamsters; conditions: hamsters; for HDL cholesterol (serum) / Total cholesterol (serum) / Total triacylglycerols (serum) / VLDL + LDL Cholesterol (serum) / VLDL + LDL/HDL cholesterol ratio: 35 days on diet; for HDL cholesterol (serum) / Total cholesterol (serum) / Total triacylglycerols (serum): supplement level as in label; for HDL cholesterol (serum) / Total cholesterol (serum) / VLDL + LDL Cholesterol (serum) / VLDL + LDL/HDL cholesterol ratio: mean; for Total triacylglycerols (serum): means ± SD; for VLDL + LDL Cholesterol (serum): difference between total and HDL cholesterol
# Method: Extracted flavonoids and a tocotrienol-rich preparation from palm oil, all provided by KGK Synergize Inc. London, Ontario, were tested in the hamster model of experimental hypercholesterolemia. The purpose of the study was to establish whether in this model, 2% supplementation of casein diet with palm tocotrienol preparation containing 70% of pure tocotrienols α-, γ- and δ-(TTP), or a similar 2% supplementation with flavonoids, hesperidin extrated from oranges and naringin extrated from grapefruit, could lower the elevated LDL cholesterol levels induced by casein. A further purpose of the study was to determine whether supplementation with 2% TTP in combination with 2% hesperidin or 2% naringin could result in synergistic cholesterol-lowering effects. Synergistic cholesterol-lowering responses have been observed for combinations of tocotrienols and citrus flavonoids in human liver cell line HepG2. The additional goal of this study was to establish whether in the same hamster model of hypercholesterolemia, 0.13% supplementation of casein diet with a mixture of polymethoxylated flavones from tangerines (PMF) could lower the elevated LDL cholesterol levels induced by casein. This experiment was based on previous tests In vitro using human liver cell line HepG2, in which principal flavonoids from PMF, tangeretin and nobiletin, had much greater cholesterol-lowering potential than hesperetin or naringenin.
# In hamsters, feeding a semipurified, casein-based, cholesterol-enriched diet for the period of 5 weeks induces experimental hypercholesterolemia associated with elevation of LDL cholesterol, similar to that observed in humans.
# (§2) Fifty four male Golden Syrian hamsters weighing 100-120 g at arrival were housed individually in a constant temperature 21-24° C. and with 12 h light:dark cycle. The animals were fed ground chow diet for 1 week. Thereafter, they were divided into seven groups (six groups of 8 animals and one group of 6 animals), each with similar average body weight, and fed experimental diets for 35 days. Food and water were provided at libitum. Food consumption was estimated during the last two weeks of treatment, for thee consecutive days during each week.
# (§3) The basal composition was similar to that described earlier. All diets contained 25% casein and 0.1% cholesterol. Experimental diets contained TTP and/or principal flavonoids, hesperidin or naringenin, added at indicated levels at the expense of rice flour.
# At the end of the study, the animals were fasted overnight and blood samples were taken by heart puncture. Total cholesterol in whole serum and in HDL fraction as well as total triacylglycerols were measured by enzymatic timed-endpoint methods, using the Beckman Coulter reagents (CHOL Reagent, HDLD HDL Reagent and TG Triglycerides GPO Reagent, respectively). All measurements were performed using SYNCHON LX System. VLDL+LDL cholesterol concentrations were calculated as a difference between total and HDL cholesterol. Results obtained were analyzed by one-way ANOVA followed by Dunnet's or Student-Newman-Keuls test for all groups and additionally by t-test for the PMF vs. the control group. Significant differences were reported at p<0.05.
# [4] = Growth performance of hamsters fed experimental diets; format: in vivo, Golden Syrian hamsters; conditions: supplement level as in label, means ± SD; for Growth Rate: diet for 35 days; for Food Consumption: last two weeks of treatment
# Method: as §2, §3
# HepG2 cells = assay: MTT viability assay, highest non-toxic concentration; format: cell-based, human; conditions: HepG2, 100% cell viability by MTT
# Method: as §1
# [5] = test system: 14C-acetate incorporation into cellular lipids in HepG2 cells; assay: 14C-acetate incorporation into cellular lipids of HepG2 cells; format: cell-based, human; conditions: HepG2, 24 h, 50 μg/ml (highest non-toxic concentration)
# Method: ^14C-acetate Incorporation: To determine whether exposure to flavonoids can also alter intracellular lipid metabolism, confluent HepG2 cells were incubated for 24 hours with the highest apo-B-reducing, non-toxic concentration of these flavonoids, in the presence of ^14C-acetate (0.5u Ci/ml medium). Radiolabelled lipids were then extracted from cells using heptane/isopropyl alcohol (3:2, v/v), and separated by thin layer chomatrography. A hexane/ethyl ether/acetic acid solvent (75:25:1, v/v) was used to separate cholesterol, cholesterol esters and triglycerides. Lipid fractions were scraped into scintillation vials and the radioactivity was measured using Beckman Scintillation Counter.
# To determine whether exposure to limonin altered intracellular lipid metabolism, confluent HepG2 cells were incubated for 24 h with or without the highest non-cytotoxic concentration of limonin. During the last 5 h of the incubation, ^14C-acetate (0.5 μCi/mL) was added to the medium. The extraction and separation of cellular lipids was done described above.
# [6] = five weeks, versus control diet, 2% in diet (PMF 0.13%)
# [7] = Homo sapiens, HepG2, comparison of limonin and flavonoids, FIG. 5, read-out: IC50 apo-B content
compound,measurement,setting,value
COc1ccc([C@@H]2CC(=O)c3c(O)cc(O)cc3O2)cc1O [hesperetin],reduction of LDL cholesterol levels compared with those given water,[1],43%
same,effect on apo-B levels/content,[2],reduced the apo-B content in a dose-dependent manner
same,IC50 apo-B production,"[2]; HepG2, 24 h incubation, ELISA",43.0 µg/mL
same,IC50,"[2]; HepG2, comparison of limonin and flavonoids, FIG. 5, read-out: IC50 apo-B content",43 µM
COc1ccc([C@@H]2CC(=O)c3c(O)cc(O[C@@H]4O[C@H](CO[C@@H]5O[C@@H](C)[C@H](O)[C@@H](O)[C@H]5O)[C@@H](O)[C@H](O)[C@H]4O)cc3O2)cc1O [hesperidin],HDL cholesterol (serum),[3],4.07 mM/L
same,Total cholesterol (serum),[3],6.73 mM/L
same,Total triacylglycerols (serum),[3],2.64 ± 1.47 mM/L
same,VLDL + LDL Cholesterol (serum),[3],2.66 mM/L
same,VLDL + LDL/HDL cholesterol ratio,[3],0.66
same,Percent change HDL cholesterol,"[3]; 35 days, versus control diet",−7%
same,Percent change Total cholesterol,"[3]; 35 days, versus control diet",−9%
same,Percent change Total triacylglycerols,"[3]; 35 days, versus control diet",−36%
same,Percent change VLDL + LDL Cholesterol,"[3]; 35 days, versus control diet",−12%
same,reduction of serum HDL cholesterol,[3]; [6],7%
same,reduction of serum total triacylglycerols,[3]; [6],36%
same,Growth Rate,[4],0.98 ± 0.24 g/day
same,Food Consumption,[4],13.15 ± 4.72 g/day
O=C1C[C@@H](c2ccc(O)cc2)Oc2cc(O)cc(O)c21 [naringenin],reduction of LDL cholesterol levels compared with those given water,[1],32%
same,effect on apo-B levels/content,[2],reduced the apo-B content in a dose-dependent manner
same,IC50,"[2]; Homo sapiens, HepG2, 24 h incubation, ELISA, read-out: IC50 apo-B production",48.5 µg/mL
same,IC50,[2]; [7],48.5 µM
CC(=O)O[C@H]1CC(=O)OC(C)(C)[C@@H]2CC(=O)[C@]3(C)[C@H](CC[C@@]4(C)[C@H](c5ccoc5)OC(=O)[C@H]5O[C@]543)[C@@]12C [nomilin],reduction of medium apo-B levels,[2],40%
COc1ccc(-c2cc(=O)c3c(OC)c(OC)c(OC)c(OC)c3o2)cc1OC [nobiletin],IC50 apo-B production,"[2]; HepG2, 24 h incubation, ELISA",4.9 µg/mL
CC1(C)O[C@H]2CC(=O)OC[C@]23[C@H]2CC[C@@]4(C)[C@H](c5ccoc5)OC(=O)[C@H]5O[C@]54[C@]2(C)C(=O)C[C@@H]13 [limonin],highest non-toxic concentration,HepG2 cells,50 µg/mL
same,"effect on 14C-acetate incorporation into cellular cholesterol, cholesteryl esters and triacylglycerols",[5],no effect
same,effect on apo-B levels/content,[2],reduced the apo-B content in a dose-dependent manner
same,reduction of medium apo-B levels,[2],74%
same,"IC50 concentration times lower than for both flavonoids (hesperetin, naringenin)",[2]; HepG2 apo-B,2-2.4 times
same,IC50,[2]; [7],20.5 µM
C[C@@H]1O[C@@H](O[C@H]2[C@H](Oc3cc(O)c4c(c3)O[C@H](c3ccc(O)cc3)CC4=O)O[C@H](CO)[C@@H](O)[C@@H]2O)[C@H](O)[C@H](O)[C@H]1O [naringin],HDL cholesterol (serum),[3],3.89 mM/L
same,Total cholesterol (serum),[3],6.56 mM/L
same,Total triacylglycerols (serum),[3],3.58 ± 1.40 mM/L
same,VLDL + LDL Cholesterol (serum),[3],2.66 mM/L
same,VLDL + LDL/HDL cholesterol ratio,[3],0.68
same,Percent change HDL cholesterol,"[3]; 35 days, versus control diet",−11%
same,Percent change Total cholesterol,"[3]; 35 days, versus control diet",−11%
same,Percent change VLDL + LDL Cholesterol,"[3]; 35 days, versus control diet",−12%
same,reduction of serum HDL cholesterol,[3]; [6],11%
same,reduction of serum total cholesterol,[3]; [6],11%
same,Growth Rate,[4],1.03 ± 0.26 g/day
same,Food Consumption,[4],10.44 ± 2.36 g/day
COc1ccc(-c2cc(=O)c3c(OC)c(OC)c(OC)c(OC)c3o2)cc1 [tangeretin],IC50 apo-B production,"[2]; HepG2, 24 h incubation, ELISA",2.5 µg/mL
